The text below walks through data of patent publication US20090176759A1, “LEUKEMIC STEM CELL ABLATION” (ChemGenex Pharmaceuticals, Inc., priority 2007, published 2009).

The subject of one assay is MCL-1. Description: Western Blot analysis of MCL-1 expression in K562 cells. To be noted: K562 (myeloid) cells. The assay is classed as cell-based. On the procedure:
In FIG. 1A the number of viable cells at the indicated drug concentrations was determined by trypan blue. In FIG. 1B the expression of ABL and MCL-1 in K562 (myeloid) cells is inhibited by HHT. In FIG. 1C the expression of ABL in lymphoid cells with BCR-ABL or the BCR-ABL T315I mutation is inhibited by HHT.
(§1) Antibodies for Western Blot analysis against c-ABL, Mcl-1 and β-actin were purchased from Santa Cruz Biothechology (Santa Cruz, Calif.). Protein lysates were prepared by lysing cells in RIPA buffer and immunoprecipitation. The retroviral vector MSCV-IRES-eGFP carrying the BCR-ABL cDNA was used to make virus stock for bone marrow transduction/transplantation. Four- to 10-week-old wild-type BABL/c or C57BL/6 (The Jackson Laboratory) and homozygous SRC triple gene knockout (Lyn−/−Hck−/−Fgr−/−) mice were used for leukemogenesis experiments. HHT (ChemGenex Pharmaceuticals, Inc, CA) was dissolved in accompanying diluent to a stock concentration of 1 mg/ml. Further dilutions were made to working concentrations using media or water.

The test system of assay [1] is T315I mutated BCR-ABL transcripts. Description: Peripheral blood BCR-ABL transcript levels by qRT-PCR and KD mutation analyses during omacetaxine therapy. The assay is classed as in vivo, human. On the procedure: Presence of T315I is confirmed at study entry at one of two reference labs (University of Texas MD Anderson Cancer Center or University of Heidelberg, Medizinische Fakultat Mannheim).
Peripheral blood BCR-ABL transcript levels are determined during omacetaxine therapy by quantitative real-time polymerase chain reaction (qRT-PCR) and BCR-ABL KD mutation analyses.

Another assay deals with BCR-ABL-induced B-ALL. The experiment in a line: Mice with BCR-ABL-induced B-ALL treated with HHT. The format is in vivo. On the procedure:
FIG. 4A is a FACS analysis evaluation of the leukemic process in HHT or placebo treated B-ALL mice after 4 days or 10 days.
as §1

The subject of another assay is BCR-ABL-WT-induced CML. The experiment in a line: Mice with BCR-ABL-WT-induced CML treated with HHT. The assay is classed as in vivo. On the procedure:
FIG. 2A is a FACS analysis of circulating GFP+ cells in mice with BCR-ABL-WT-induced CML. […] The number of circulating leukemic cells (calculated as percentage of Gr-1+GFP+ cells×white blood cell count) in mice with BCR-ABL-WT-induced CML treated with placebo or HHT for 4 days was determined on day 12 after transplantation. FIG. 2B depicts a bar graph for the leukemic cells as well as a bar graph for spleen weight of the mice treated with placebo or HHT.
as §1
FIG. 2A is a FACS analysis of circulating leukemic GFP+ cells in mice with BCR-ABL-WT-induced CML. […] The number of circulating leukemic cells (calculated as percentage of Gr-1+GFP+ cells×white blood cell count) in mice with BCR-ABL-WT-induced CML treated with placebo or HHT for 4 days was determined on day 12 after transplantation. FIG. 2B depicts a bar graph for the leukemic cells as well as a bar graph for spleen weight of the mice treated with placebo or HHT.

For assay [2], the system named is BCR-ABL-T315I-induced CML. The experiment in a line: Mice with BCR-ABL-T315I-induced CML treated with HHT. The format is in vivo. As for the experimental part:
In FIG. 3A, the number of circulating leukemic cells (calculated as percentage of Gr-1+GFP+ cells×white blood cell count) in mice with BCR-ABL-T315I-induced CML treated with placebo or HHT was determined on day 14 after transplantation.
as §1
The number of circulating leukemic cells (calculated as percentage of Gr-1+GFP+ cells×white blood cell count) in mice with BCR-ABL-T315I-induced CML treated with placebo or HHT (0.5 mg/kg) was determined on day 14 after transplantation.

Assay [3] deals with leukemia stem cells of mice with BCR-ABL-WT-induced CML. The experiment in a line: Leukemic cells and leukemia stem cells in bone marrow of treated CML mice, FACS. The format is in vivo. To be noted: HHT 0.5 mg/kg once every day, imatinib 100 mg/kg twice a day, by gavage, 4 days beginning at day 8 after transplantation. As for the experimental part: FIG. 5A is a FACS analysis of bone marrow cells isolated from mice with BCR-ABL-WT-induced CML were cultured in vitro (5×10^6 cells/6 cm tissue culture plate) in the presence of different doses of HHT for 6 days (changing the stem cell medium containing placebo or HHT at day 3) followed by FACS analysis of leukemia stem cells (GFP+Lin− c-Kit+Sca-1+). FIG. 5B depicts bar graphs for the leukemic cells and leukemic stem cells. […] Bone marrow cells were isolated from the treated CML mice, and leukemia stem cells were analyzed by FACS. The numbers of cells represent total leukemia stem cells in average from femur and tibia of each treated CML mouse.
Bone marrow cells were isolated from the treated CML mice, and leukemia stem cells were analyzed by FACS. The numbers of cells represent total leukemia stem cells in average from femur and tibia of each treated CML mouse.

Consider `COC(=O)C[C@](O)(CCCC(C)(C)O)C(=O)O[C@@H]1C(OC)=C[C@]23CCCN2CCc2cc4c(cc2[C@H]13)OCO4` [HHT, Homoharringtonine], for which, in the assay with MCL-1, the “expression of MCL-1” value is “inhibited”. The “evaluable patients with T315I mutated BCR-ABL transcripts reduced below the detection level” value in assay [1] (5/13 evaluable patients) was found to be 38%. Besides, the T315I mutated clone entry in assay [1] (CP patients (FIG. 8)) is “rapidly and substantially reduced”. For the same molecule, the “patients in whom the T315I clone is reduced to below the limits of detection” value in assay [1] (chronic phase patients (FIG. 8)) came to 64%. Further, the T315I clone result in assay [1] (heavily-pretreated patients with IM-resistant T315I+CML) is reported as “complete elimination of the T315I clone in a number of heavily-pretreated patients”. Besides, the “leukemic cells (FACS)” value in the assay on BCR-ABL-induced B-ALL (B-ALL mice after 4 days or 10 days, HHT vs placebo) was “significant reduction in leukemic cells as a function of treatment time and HHT dosage”. Besides, the survival result is “prolonged survival” in the assay with BCR-ABL-induced B-ALL (B-ALL mice, HHT 1 mg/kg); “significantly increased” in the assay on BCR-ABL-WT-induced CML (BCR-ABL-WT CML mice, HHT vs placebo); “prolonged survival” in assay [2] (BCR-ABL-T315I CML mice, HHT vs placebo). Further, the “number of circulating leukemic cells (percentage of Gr-1+GFP+ cells×white blood cell count)” value in the assay with BCR-ABL-WT-induced CML (HHT 0.5 mg/kg for 4 days, day 12 after transplantation, vs placebo) was “significantly reduces”; in assay [2] (HHT 0.5 mg/kg, day 14 after transplantation, vs placebo), “significantly reduced”. Moreover, the “size of the spleen (spleen weight)” value in the assay on BCR-ABL-WT-induced CML (HHT 0.5 mg/kg vs placebo) is “significantly reduces”. Moreover, in assay [3], the “number of leukemic cells in bone marrow” value was “reduces”. For the same molecule, in assay [3], the “number of leukemic stem cells in bone marrow (femur and tibia)” value is “reduces”.
